Entries after “also recorded” stand apart in the source; their conditions may differ.
Experiments:
[1] = test system: formalin-induced inflammation in mice; assay: Formalin-induced pain in mice; assay type: in vivo, mouse; conditions: 30 mg/kg I.P. 30 min before 10% formalin
Experimental: FIG. 8. Effects of EXAMPLE-128 (30 mg/kg, I.P.) or vehicle on formalin-induced inflammation in male mice (C57BL/6, ˜3 months old; n=8 mice per group). The test compound was I.P. administered 30 min prior to local injection of 10% formalin into the left hindpaw (10 μl). Time spent in grooming, licking or biting the injury paw was manually scored immediately following formalin injection in 5-min time bin for 45 min.
Formalin-induced biphasic response, nociception followed by inflammatory pain in a mouse hindpaw, is an acute pain and chemical-induced inflammatory pain model. The EXAMPLE-128 was tested in this model. Mice (C57BL/6, male, ˜2 months old; n=8 mice per treatment group) received a 10 μl intraplantar injection of 10% formalin in saline into the left hindpaw. Pain response scoring includes counts per episode of time of reactions to the pain stimulus as indicated by licks, twitches, raising or shaking of the injected paw.

[2] = test system: harmaline-induced tremor in mice; assay: Harmaline-induced essential tremor model in mice; assay type: in vivo, mouse
Experimental: FIG. 12. Effects of EXAMPLE-128 on harmaline-induced essential tremor model in mice. Harmaline was dissolved in saline and administrated at 10 mg/kg (S.C.) mice (C57BL/6, male, 3-5 months). Ten minutes after tremors occurred, mice were treated with either EXAMPLE-128 (30 mg/kg, I.P.) or vehicle (2% DMSO in 0.5% HPC).
Harmaline can induce tremors modeling human essential tremor manifested as postural and kinetic tremors (Nahab et al., 2012). Harmaline was dissolved in saline and administrated at 10 mg/kg (s.c.) to mice (C57BL/6, male, 3 months) and the mice were immediately returned to homecage monitor with an piezoelectric sensor operated by the SmartCage™ for continual recordings for 60 min. […] Mice were randomly assigned to be treated with EXAMPLE-128 (3, 10 or 30 mg/kg, I.P.) or vehicle (2% DMSO in 0.5% HPC), starting ten min after tremors began, Tremor episode numbers and each episode's duration were offline human scored.

[3] = SafetyScreen 44 ancillary pharmacology panel
Excerpt: (§1) Moreover, compounds useful in therapeutic formulations may be further screened for undesired side effect activities by utilizing large ancillary pharmacology panel screens, for example, SafetyScreen 44 and the Ames microsomemutagenicity assay (Eurofins-Cerep, US and France).

[4] = test system: Ames microsomemutagenicity assay; assay: Ames microsome mutagenicity assay; assay type: cell-based
Excerpt: as §1

SNI rats = assay: Spared nerve injury (SNI) rats, Hargreaves thermal test; assay type: in vivo, rat; conditions: 30 mg/kg, 1 mL I.P.
Experimental: FIG. 3A. Spared Nerve Injury (SNI) rats' left hindpaw withdrawal latencies in response to thermal stimulation (Hargreaves test). Each SNI rat received either EXAMPLE-106, 107, or 115, (each 30 mg/kg, 1 mL I.P.), or vehicle (2% DMSO in 0.5% HPC). Sham rats also received vehicle I.P. injections. […] 40 seconds were cutoff in order to prevent tissue damage. The sham-vehicle serves as a positive control (n=8 per treatment group).
In additional examples shown here, the analgesic effects were further evaluated in another rat species. Baseline thermal and mechanical thresholds of male rats (Sprague-Dawley rats, 275 g-325 g, Harlan) were taken prior to surgery; baseline thresholds were measured on the rats' left hindpaws. Thirty-two rats underwent the SNI surgery on their left hind leg; 8 rats underwent surgery without injury of the nerves as a sham group. Two weeks post-surgery, the thermal thresholds of each rat were reassessed. […] Each rat received either EXAMPLE-106, -107, -115 (each 30 mg/kg, 1 mL I.P.), or vehicle (2% DMSO in 0.5% HPC). Thermal and mechanical thresholds were measured at 1, 2, 3, 4, 5, 6, 7, and 8 hours post-treatment/dosing. […] The drug actions started around 1 hour post-injection and peaked between 2 and 3 hours, and the drug effects gradually declined to pre-treatment levels over 6-7 hours (FIGS. 3A and B).

[5] = test system: taxol-induced neuropathic pain model in mice; assay: Taxol-induced neuropathic pain in mice, von Frey test; assay type: in vivo, mouse; conditions: taxol 4 mg/kg I.P., 3, 10 or 30 mg/kg I.P.
Experimental: FIG. 6A. Effects of EXAMPLE-115 on taxol (4 mg/kg, I.P.)-induced neuropathic pain model in mice. Mechanical pain thresholds of left hindpaws were assessed using von Frey monofilament test. Each mouse received either EXAMPLE-115 (3, 10 or 30 mg/kg, I.P.) or vehicle (2% DMSO in 0.5% HPC, I.P.; n=8 per group). Injection of taxol lowered mechanical pain thresholds.
FIG. 6B. Effects of EXAMPLE-123 on taxol (4 mg/kg, I.P.)-induced neuropathic pain model in a separate cohort of mice. Mechanical pain thresholds of left hindpaws were assessed using von Frey monofilament test. Each mouse received either EXAMPLE-123 (30 mg/kg, I.P., n=8) or vehicle (2% DMSO in 0.5% HPC, I.P.).
Chemotherapy-induced painful neuropathy is a common side effect associated with chronic treatment with Taxol (paclitaxel) or other anticancer drugs based on cytotoxicity. Taxol or paclitaxel is one of the most popular drugs used for the treatment of various cancers (Chaudhry et al., 1994). The chemotherapy-induced peripheral neuropathy manifests as chronic hyperalgesia and other sensory abnormalities. Taxol (Sigma, 4.0 mg/kg, I.P.) was dissolved in saline containing 5% DMSO (vehicle) and injected to mice (freshly prepared before injection).

CFA mice = assay: Complete Freund's Adjuvant (CFA)-induced inflammatory pain in mice, von Frey test; assay type: in vivo, mouse; conditions: 30 mg/kg I.P.
Experimental: FIG. 7. Effects of EXAMPLE-96, 107 or 115 (each 30 mg/kg, I.P.) or gabapentin (as a benchmark, 100 mg/kg, I.P) on Complete Freund's Adjuvant (CFA)-induced inflammation in male, mice (C57BL/6, ˜2 months old; n=8 mice per group). Mechanical pain threshold assessment of CFA mice's left hindpaws were measured using von Frey monofilament test at 0.5, 1, 2, 4, and 6 hours after treatment.
Because knockout or antisense knockdown of the Cav3.2 isoform produces analgesic effects in neuropathic pain as well as in inflammatory pain in mice (Choi et al., 2007), we used the Complete Freund adjuvant (CFA)-inflammatory pain in mice to investigate the drug effects. EXAMPLE-96, -115, and -107 (each at 30 mg/kg, I.P.) and a reference gabapentin (100 mg/kg, I.P.) was individually administered to mice that had CFA-induced inflammation on their left hindpaws.

CC(C)(C)NC(=O)CN1CCC2(CC1)CC2NC(=O)c1cc(F)cc(Cl)c1 (single isomer, unassigned) [Example 128, (S)—N-(6-(2-(tert-Butylamino)-2-oxoethyl)-6-azaspiro[2.5]octan-1-yl)-3-chloro-5-fluorobenzamide or (R)—N-(6-(2-(tert-Butylamino)-2-oxoethyl)-6-azaspiro[2.5]octan-1-yl)-3-chloro-5-fluorobenzamide]
formalin-induced biphasic pain response [1]: produced inhibition of both phases | total tremor occurring time in 60 minutes ([2]; harmaline 10 mg/kg S.C., 30 mg/kg I.P.): significantly reduced the total tremor occurring time | total time spent in tremors ([2]; harmaline 10 mg/kg s.c., 3, 10 or 30 mg/kg I.P.): significantly reduced the total time spent in tremors in a dose-dependent manner | off-target activities [3]: no significant off-target activities | mutagenicity [4]: lack of mutagenicity

O=C(Nc1nnc(-c2ccccc2)o1)c1ccc(Cl)s1 [Example 115, 5-Chloro-N-(5-phenyl-1,3,4-oxadiazol-2-yl)thiophene-2-carboxamide]
left hindpaw withdrawal latency to thermal stimulation (hyperalgesia) (SNI rats): elevated both thermal and mechanical thresholds; also recorded: reduced hyperalgesia | mechanical pain threshold, taxol-induced neuropathic pain [5]: produced significant effects on Taxol-induced pain compared to vehicle in a dose-dependent manner; also recorded: reversed the taxol-induced neuropathic pain in a dose-dependent manner | mechanical pain threshold, CFA-induced inflammation (CFA mice): showed an analgesic effect in mechanical pain

— US10562857B2 (AFASCI, Inc., priority 2015, dated 2020)
